Measured values published in PMC4028696, “Development of a screen to identify selective small molecules active against patient-derived metastatic and chemoresistant breast cancer cells” (Breast Cancer Research : BCR, 2013).

Key:
T47D cells = assay: BrdU proliferation and cell cycle analysis; format: cell-based, human; details: 15 μM, 24 or 48 hours vs DMSO
Procedure: (§1) Cells were seeded in six-well plates (BD Falcon) in their respective media at different densities to attain 70% to 80% confluency at the end of the assay. In order to compare the proliferation rate of established cell lines compared to patient-derived cells, 10 μM of 5-bromo-2-deoxyuridine (BrdU) (Sigma) was added to the culture media for 30 minutes or 6 hours in triplicate. To determine the impact of C-6 on the cell cycle, cells were treated with 15 μM C-6 or 0.02% (v/v) DMSO vehicle in the corresponding media containing 2% FBS for 24 and 48 hours in triplicate followed by treatment with 10 μM BrdU for 30 minutes. Immediately following BrdU treatment, floating cells were collected and adherent cells were trypsinized. Floating and adherent cells were combined, washed with HBSS containing 2% FBS, fixed with 70% ethanol and stored overnight at -20°C. Cells were then treated with 2 M HCl containing 0.5% Triton X-100 (EMD Millipore) for 30 minutes at room temperature and were washed with 0.1 M sodium tetraborate (Sigma) at pH = 8.5. Next, cells were blocked with staining buffer, which consisted of 1% BSA, 0.5% Tween-20 (Fisher Scientific) in PBS, for five minutes and were stained with a mouse monoclonal BrdU antibody (Developmental Studies Hybridoma Bank, Iowa City, IA, USA) for one hour on ice. Cells were subsequently washed and stained with anti-mouse Alexa Fluor® 488 (Life Technologies) for 30 minutes on ice, washed, stained with 5 μg/mL of propidium iodide (EMD Millipore) and passed through a 70-μm cell strainer. Cell suspensions were analyzed using a FACScan flow cytometer and the resulting data were analyzed with Flow Jo software. The average ± SD of three wells for each condition was calculated.

MDA-MB-231 cells = assay: BrdU proliferation and cell cycle analysis; format: cell-based, human; details: MDA-MB-231, 15 μM, 24 or 48 hours vs DMSO
Procedure: as §1

MCF-7 cells = assay: BrdU proliferation and cell cycle analysis; format: cell-based, human; details: MCF-7, 15 μM, 24 or 48 hours vs DMSO
Procedure: as §1

MCF-10A cells = assay: BrdU proliferation and cell cycle analysis; format: cell-based, human; details: 15 μM, 24 or 48 hours vs DMSO
Procedure: as §1

[1] = Chemical screen, difference in ATP viability between normal and tumor cells; format: cell-based; details: human, four days, duplicate, read-out: difference in viability between the hTERT-HMEC and PE1007070 cells (selectivity)
Procedure: The hTERT-HMEC and PE1007070 cells were seeded in white 96-well plates (Costar) in 100 μL of modified M87 media at varying densities to achieve 80% to 90% confluency at the end of the assay. The 10 mM DMSO stock solutions from the 560-compound University of Utah Department of Chemistry library were diluted with modified M87 media utilizing an EP Motion 5075 (Eppendorf North America) liquid handler. In addition, corresponding DMSO vehicle and doxorubicin controls were prepared in modified M87 media. After the cells were cultured for 24 hours, 80 μL of media was aspirated from each well. […] After four days of treatment, viability was determined utilizing the ATPlite 1step assay system (Perkin Elmer) according to the manufacturer's instructions. Luminescence measurements were acquired utilizing a Perkin Elmer 2104 EnVision plate reader. Raw luminescence values were normalized to the DMSO vehicle control wells for each plate and cell type. […]
Reagent/ compound dispensing system Eppendorf EP Motion 5075 (Compound dilution) Detection instrument and software Luminescence was detected with a Perkin Elmer Envision 2104 Assay validation/QC 20 µM Doxorubicin was used as a positive control and used to […]
Additional comments Selectivity of compounds was determined by subtracting the average viability of the PE1007070 from the hTERT-HMEC cells […]

COc1cc(OC)cc(C(C)c2ccc(NC(=O)OC(C)(C)C)cc2)c1 (centres unmarked) [C-6]
percentage of cells in G1/G0 (T47D cells): increased
percentage of cells in G1/G0 (MDA-MB-231 cells): increased
percentage of cells in G1/G0 (MCF-7 cells): increased
cell cycle profile (MCF-10A cells): did not show a statistically significant difference
viability difference, normal minus tumor cells (selectivity) at 4 days, 20 µM [1]: 62%
